According to paper PMC10235067, “Increased renal elimination of endogenous and synthetic pyrimidine nucleosides in concentrative nucleoside transporter 1 deficient mice” (Nature Communications, 2023):
“And” between values parts separate entries of the source, which are not always exact repeats. Equal values may be shown once.

Key:
[1] = Gemcitabine urine pharmacokinetics (renal excretion) in Slc28a1+/+ and Slc28a1-/- mice; settings: Figure 5 G, H, I, individual mice; for concentration at 5 min / concentration at 10 min / concentration at 15 min / concentration at 30 min / concentration at 60 min / concentration at 120 min / concentration at 240 min: mouse, urine, intravenous, 50 mg/kg, Cp (dFdU)
Description: THU was added to the mouse urine samples upon collection and frozen until analysis. […] Five microliters of the diluted samples were transferred to a 96-well autosampler plate then 10 µL of internal standard mixture was added and mixed. […] The plate was then transferred to the 4 °C autosampler for analysis.
The chromatographic separation was performed on a Thermo Accucore aQ 2.6 µm, 100 ×2.1 mm column at 30 °C using a gradient with a 10 µL injection volume. The mobiles phases were 1 mM ammonium acetate in deionized water pH 6.8 and acetonitrile. The total run time was 5.5 min. […] The LC–MS/MS analysis was conducted on a Thermo Vanquish UHPLC with a TSQ Quantiva mass spectrometer equipped with an electrospray ionization source.

[2] = cited from earlier work
[3] = Gemcitabine plasma pharmacokinetics in Slc28a1+/+ and Slc28a1-/- mice
[4] = dFdU in plasma, KO mice, iv gemcitabine 50mg/kg, per mouse

concentration at 5 min ([1]; KO mice, 5 Minutes): 344 ng/mL
concentration at 10 min ([1]; KO mice, 10 Minutes): 239 ng/mL
concentration at 15 min ([1]; KO mice, 15 Minutes): 344 ng/mL
concentration at 30 min ([1]; KO mice, 30 Minutes): 334 ng/mL
concentration at 60 min ([1]; KO mice, 60 Minutes): 350 ng/mL
concentration at 120 min ([1]; KO mice, 120 Minutes): 354 ng/mL
concentration at 240 min ([1]; KO mice, 240 Minutes): 371 ng/mL
concentration at 5 min ([1]; WT mice, 5 Minutes): 328 ng/mL
concentration at 10 min ([1]; WT mice, 10 Minutes): 330 ng/mL
concentration at 15 min ([1]; WT mice, 15 Minutes): 331 ng/mL
concentration at 30 min ([1]; WT mice, 30 Minutes): 328 ng/mL
concentration at 60 min ([1]; WT mice, 60 Minutes): 329 ng/mL
concentration at 120 min ([1]; WT mice, 120 Minutes): 332 ng/mL
concentration at 240 min ([1]; WT mice, 240 Minutes): 429 ng/mL
AUC (Last) ([3]; Slc28a1-/- mice, plasma, single i.v. dFdC 50 mg/kg): 1453.8 ± 31.9 ng x min/mL
AUCINF_obs [3, 4]: 12372.5 ng·min/mL and 7563.4 ng·min/mL
AUCINF_pred [3, 4]: 12429.8 ng·min/mL and 7594.45 ng·min/mL
AUC_%Back_Ext_obs [3, 4]: 27.8053% and 16.048% and 18.9747%
AUC_%Back_Ext_pred [3, 4]: 27.8277% and 15.9741% and 18.8972%
AUC_%Extrap_obs [3, 4]: 3.511% and 11.2661% and 5.257%
AUC_%Extrap_pred [3, 4]: 3.433% and 11.6749% and 5.644%
AUMC_%Extrap_obs [3, 4]: 13.2491% and 31.3337% and 16.4642%
AUMC_%Extrap_pred [3, 4]: 12.9851% and 32.2062% and 17.5245%
HL_Lambda_z [3, 4]: 5.606 min and 8.621 min and 6.452 min
Lambda_z [3, 4]: 0.0804 min⁻¹ and 0.1074 min⁻¹
MRTINF_obs [3, 4]: 15.2585 min and 12.5511 min
MRTINF_pred [3, 4]: 15.3837 min and 12.6605 min
Tlast [3, 4]: 30 min and 15 min
Compound: O=c1ccn([C@@H]2O[C@H](CO)[C@@H](O)C2(F)F)c(=O)[nH]1 [dFdU, 2′,2′-difluorodeoxyuridine]
Cp (dFdU) ([1]; KO mice, 5 Minutes): 317.288 ng/mL and 341.288 ng/mL and 338.288 ng/mL and 263.288 ng/mL
Cp (dFdU) ([1]; KO mice, 10 Minutes): 227.479 ng/mL and 269.479 ng/mL and 242.479 ng/mL and 273.479 ng/mL and 275.479 ng/mL
Cp (dFdU) ([1]; KO mice, 15 Minutes): 331.541 ng/mL and 373.541 ng/mL and 346.541 ng/mL and 377.541 ng/mL and 379.541 ng/mL
Cp (dFdU) ([1]; KO mice, 30 Minutes): 322.048 ng/mL and 364.048 ng/mL and 337.048 ng/mL and 368.048 ng/mL and 370.048 ng/mL
Cp (dFdU) ([1]; KO mice, 60 Minutes): 338.37 ng/mL and 380.37 ng/mL and 353.37 ng/mL and 384.37 ng/mL and 386.37 ng/mL
Cp (dFdU) ([1]; KO mice, 120 Minutes): 342.398 ng/mL and 384.398 ng/mL and 357.398 ng/mL and 388.398 ng/mL and 390.398 ng/mL
Cp (dFdU) ([1]; KO mice, 240 Minutes): 359.089 ng/mL and 401.089 ng/mL and 374.089 ng/mL and 405.089 ng/mL and 407.089 ng/mL
Cp (dFdU) ([1]; WT mice, 5 Minutes): 390.036 ng/mL and 363.036 ng/mL and 387.036 ng/mL and 384.036 ng/mL and 309.036 ng/mL
Cp (dFdU) ([1]; WT mice, 10 Minutes): 317.618 ng/mL and 359.618 ng/mL and 332.618 ng/mL and 363.618 ng/mL and 365.618 ng/mL
Cp (dFdU) ([1]; WT mice, 15 Minutes): 319.343 ng/mL and 361.343 ng/mL and 334.343 ng/mL and 365.343 ng/mL and 367.343 ng/mL
Cp (dFdU) ([1]; WT mice, 30 Minutes): 316.265 ng/mL and 358.265 ng/mL and 331.265 ng/mL and 362.265 ng/mL and 364.265 ng/mL
Cp (dFdU) ([1]; WT mice, 60 Minutes): 316.849 ng/mL and 358.849 ng/mL and 331.849 ng/mL and 362.849 ng/mL and 364.849 ng/mL
Cp (dFdU) ([1]; WT mice, 120 Minutes): 320.376 ng/mL and 362.376 ng/mL and 335.376 ng/mL and 366.376 ng/mL and 368.376 ng/mL
Cp (dFdU) ([1]; WT mice, 240 Minutes): 471.043 ng/mL and 459.043 ng/mL and 432.043 ng/mL and 463.043 ng/mL and 465.043 ng/mL
half-life [2]: ~ 26 h
AUCINF_D_obs [3, 4]: 145.293 kg·ng·min/mL/mg and 247.451 kg·ng·min/mL/mg and 151.268 kg·ng·min/mL/mg
AUCINF_D_pred [3, 4]: 145.176 kg·ng·min/mL/mg and 248.596 kg·ng·min/mL/mg and 151.889 kg·ng·min/mL/mg
AUCall [3, 4]: 7482.64 ng·min/mL and 12659.7 ng·min/mL and 8852.13 ng·min/mL and 5047.42 ng·min/mL and 7806.56 ng·min/mL and 6947.11 ng·min/mL
AUClast [3, 4]: 7009.6 ng·min/mL and 10978.6 ng·min/mL and 5995.89 ng·min/mL and 3337.67 ng·min/mL and 7165.79 ng·min/mL and 6415.86 ng·min/mL
AUClast_D [3, 4]: 140.192 kg·ng·min/mL/mg and 219.572 kg·ng·min/mL/mg and 119.918 kg·ng·min/mL/mg and 66.7534 kg·ng·min/mL/mg and 143.316 kg·ng·min/mL/mg and 128.317 kg·ng·min/mL/mg
AUMCINF_obs [3, 4]: 73315.1 min*min*ng/mL and 188787 min*min*ng/mL and 94928.9 min*min*ng/mL
AUMCINF_pred [3, 4]: 73092.7 min*min*ng/mL and 191216 min*min*ng/mL and 96149.2 min*min*ng/mL
AUMClast [3, 4]: 63601.5 min*min*ng/mL and 129633 min*min*ng/mL and 47032.5 min*min*ng/mL and 25446 min*min*ng/mL and 79299.6 min*min*ng/mL and 72737 min*min*ng/mL
Cl_pred [3, 4]: 413.291 L/h/kg and 241.36 L/h/kg and 395.026 L/h/kg
Clast [3, 4]: 31.5362 ng/mL and 112.074 ng/mL and 380.831 ng/mL and 227.966 ng/mL and 42.718 ng/mL and 35.4167 ng/mL
Clast_pred [3, 4]: 30.8142 ng/mL and 116.678 ng/mL and 46.0533 ng/mL
Cmax [3, 4]: 399.844 ng/mL and 516.311 ng/mL and 478.159 ng/mL and 230.143 ng/mL and 315.127 ng/mL and 303.44 ng/mL
Cmax_D [3, 4]: 7.997 kg·ng/mL/mg and 10.3262 kg·ng/mL/mg and 9.563 kg·ng/mL/mg and 4.603 kg·ng/mL/mg and 6.303 kg·ng/mL/mg and 6.069 kg·ng/mL/mg
MRTlast [3, 4]: 11.8078 min and 7.844 min and 7.624 min and 11.0664 min and 11.3371 min
